# Results taken from ChEMBL document CHEMBL2073765, “Disrupted bile acid homeostasis reveals an unexpected interaction among nuclear hormone receptors, transporters, and cytochrome P450” (J Biol Chem, 2001).
# Molecular target: Bile salt export pump (Homo sapiens, UniProt O95342)
# Assay: TP_TRANSPORTER: Western in vitro, primary human hepatocyte
# Format: functional, cell-based
# Conditions: hepatocytes
# Bile salt export pump, sequence (O95342 whole entry): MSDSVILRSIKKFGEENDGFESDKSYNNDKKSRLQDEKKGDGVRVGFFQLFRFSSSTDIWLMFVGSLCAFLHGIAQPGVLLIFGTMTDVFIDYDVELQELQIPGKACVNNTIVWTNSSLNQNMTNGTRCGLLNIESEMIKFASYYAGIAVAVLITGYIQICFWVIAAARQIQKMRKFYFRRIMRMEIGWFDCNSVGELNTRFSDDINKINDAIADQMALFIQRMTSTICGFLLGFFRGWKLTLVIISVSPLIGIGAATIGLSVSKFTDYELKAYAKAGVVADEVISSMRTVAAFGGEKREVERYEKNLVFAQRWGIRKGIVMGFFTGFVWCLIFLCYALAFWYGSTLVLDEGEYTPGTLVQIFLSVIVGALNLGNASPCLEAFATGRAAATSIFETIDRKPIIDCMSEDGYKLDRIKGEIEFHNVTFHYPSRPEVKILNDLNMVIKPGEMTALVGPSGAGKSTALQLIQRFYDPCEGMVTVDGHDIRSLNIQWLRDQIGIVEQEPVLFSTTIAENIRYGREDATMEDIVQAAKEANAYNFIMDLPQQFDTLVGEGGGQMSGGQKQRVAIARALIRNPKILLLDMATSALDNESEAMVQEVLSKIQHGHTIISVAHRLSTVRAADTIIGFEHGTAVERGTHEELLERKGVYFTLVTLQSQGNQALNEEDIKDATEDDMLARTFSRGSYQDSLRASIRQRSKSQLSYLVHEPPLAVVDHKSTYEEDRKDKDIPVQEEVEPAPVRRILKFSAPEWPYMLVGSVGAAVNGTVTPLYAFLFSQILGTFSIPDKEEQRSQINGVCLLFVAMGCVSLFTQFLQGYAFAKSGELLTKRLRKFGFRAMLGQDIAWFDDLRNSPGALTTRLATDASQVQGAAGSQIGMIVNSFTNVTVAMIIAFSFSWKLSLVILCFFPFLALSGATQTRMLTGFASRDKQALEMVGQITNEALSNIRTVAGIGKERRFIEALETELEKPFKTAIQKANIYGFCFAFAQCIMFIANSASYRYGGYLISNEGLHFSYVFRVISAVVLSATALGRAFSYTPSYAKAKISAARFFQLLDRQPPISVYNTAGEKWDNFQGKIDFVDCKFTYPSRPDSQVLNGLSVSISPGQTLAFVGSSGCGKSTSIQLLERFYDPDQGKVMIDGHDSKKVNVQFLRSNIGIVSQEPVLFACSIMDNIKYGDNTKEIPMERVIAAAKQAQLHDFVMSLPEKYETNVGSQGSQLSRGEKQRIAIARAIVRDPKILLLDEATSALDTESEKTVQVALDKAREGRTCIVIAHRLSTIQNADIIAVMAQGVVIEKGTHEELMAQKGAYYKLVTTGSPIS
row,SMILES,Activity
1,C[C@H](CCC(=O)O)[C@H]1CC[C@H]2[C@@H]3[C@H](O)C[C@@H]4C[C@H](O)CC[C@]4(C)[C@H]3CC[C@]12C [CHENODIOL],inducer [+]
2,C[C@H](CCC(=O)O)[C@H]1CC[C@H]2[C@@H]3CC[C@@H]4C[C@H](O)CC[C@]4(C)[C@H]3C[C@H](O)[C@]12C [DEOXYCHOLIC ACID],inducer [+]
